Data set [1] can be described thus: general compatibility (LD50 i.v.) in rats. The following applies: rat, in vivo, iv.
Data set [2] deals with rats. The data set can be described thus: neural compatibility: intracerebral compatibility / Valzelli value (ED50) in rats. Particulars: aqueous meglumine salt solutions, confidence range p 0.05.
The mark [3] stands for this setting: rats, aqueous meglumine salt solutions.

In data set [1], `CC(=O)Nc1c(I)c(C(=O)O)c(I)c(C(=O)NCC(C)O)c1I` (centres unmarked) [Compound 7] gave an LD50 of 18200 mg/kg. For the same compound, the “Valzelli Value (ED50) and Confidence Range” value in data set [2] is given as 50.7 (44.3-56.6) mg. I/kg.
As for `COCC(=O)Nc1c(I)c(C(=O)O)c(I)c(C(=O)NC(C)(C)CCO)c1I` [Compound 6, N-(3-hydroxy-1,1-dimethylpropyl)-2,4,6-triiodo-5-methoxyacetamidoisophthalamic acid], in data set [1] (setting [3]), the LD50 was found to be 18400 mg/kg. For the same compound, in data set [2], the “Valzelli Value (ED50) and Confidence Range” value is recorded as 67.2 (58.7-84.8) mg. I/kg.
The like results for `COCC(=O)Nc1c(I)c(C(=O)O)c(I)c(C(=O)NCCCO)c1I` [Compound 4, N-(3-Hydroxypropyl)-2,4,6-triiodo-5-methoxyacetamidoisophthalamic Acid] were, in that order, 16300 mg/kg and 43.1 (32.6-50.9) mg. I/kg.
`CC(=O)Nc1c(I)c(C(=O)O)c(I)c(C(=O)NCCO)c1I` [Compound 1, ioxithalamic acid, reference compound]: the LD50 in data set [1] was determined as 15200 mg/kg. In data set [2], the “Valzelli Value (ED50) and Confidence Range” value is given as 12.3 (10.3-14.4) mg. I/kg.
As for `COCC(=O)Nc1c(I)c(C(=O)O)c(I)c(C(=O)NCC(C)O)c1I` (centres unmarked) [Compound 3, N-(2-Hydroxypropyl)-2,4,6-triiodo-5-methoxyacetamidoisophthalamic Acid], the LD50 in data set [1] (setting [3]) was found to be 19000 mg/kg. In addition, the “Valzelli Value (ED50) and Confidence Range” value in data set [2] was 44.6 (35.5-52.2) mg. I/kg.
The like results for `COCC(=O)Nc1c(I)c(C(=O)O)c(I)c(C(=O)NCCO)c1I` [Compound 5, N-(2-Hydroxyethyl)-2,4,6-triiodo-5-methoxyacetamidoisophthalamic Acid] were, in that order, more than 18600 mg/kg and 44.9 (36.7-51,8) mg. I/kg.
As for `COCC(=O)Nc1c(I)c(C(=O)O)c(I)c(C(=O)NC(C)(C)CO)c1I` [Compound 2, N-(2-hydroxy-1,1-dimethylethyl)-2,4,6-triiodo-5-methoxyacetamidoisophthalamic acid], the LD50 in data set [1] (setting [3]) was found to be 20000 mg/kg. Further, in data set [2], the “Valzelli Value (ED50) and Confidence Range” value is given as 71.4 (61.4-99.9) mg. I/kg.

The values above are taken from US4132731A, “Novel iodized isophthalamic acid compounds” (Schering Aktiengesellschaft, priority 1976, dated 1979).
